Measurements: patent US12636366B2, “Ruthenium (II) complexes and conjugates thereof for use as photosensitizer agent in photodynamic therapy” (Paris Sciences et Lettres, priority 2019, dated 2026)
Read-outs that look alike come from different tables or passages of the source.

How the values were obtained:
[1] = Emission of the complexes in CH3CN upon excitation at 355 nm; format: physicochemical; settings: room temperature
Procedure: The absorption of the samples in cuvettes has been measured with a Lambda 800 UV/VIS Spectrometer (PerkinElmer Instruments) and in 96 well plates with a SpectraMax M2 Spectrometer (Molecular Devices). The emission was measured by irradiation of the sample in fluorescence quartz cuvettes (width 1 cm) using a NT342B Nd-YAG pumped optical parametric oscillator (Ekspla) at 355 nm. Luminescence was focused and collected at right angle to the excitation pathway and directed to a Princeton Instruments Acton SP-2300i monochromator equipped with 1200 g/mm grating blazed at 500 nm. As a detector a XPI-Max 4 CCD camera (Princeton Instruments) has been used.
Upon excitation at 355 nm, the emission of the complexes in CH3CN was determined. The maximum of the emission signal was measured between 600-710 nm (Table 1). […] This leads for all investigated complexes to a large Stokes shift implying minimal inference between excitation and luminescence.

[2] = Singlet oxygen measurement, indirect evaluation (RNO reporter absorbance); format: physicochemical; settings: indirect method, excitation at 450 nm, average of three, +-10%
Procedure: For the measurement in CH3CN: The samples were prepared in an air-saturated CH3CN solution containing the complex with an absorbance of 0.1 at the irradiation wavelength, N,N-dimethyl-4-nitrosoaniline aniline (RNO, 24 μM) and imidazole (12 mM). For the measurement in PBS buffer: The samples were prepared in an air-saturated PBS solution containing the complex with an absorbance of 0.1 at the irradiation wavelength, N,N-dimethyl-4-nitrosoaniline aniline (RNO, 20 μM) and histidine (10 mM). The samples were irradiated on 96 well plates with an Atlas Photonics LUMOS BIO irradiator for different times. The absorbance of the samples was measured during these time intervals with a SpectraMax M2 Microplate Reader (Molecular Devices). The difference in absorbance (A0-A) at 420 nm for the CH3CN solution or at 440 nm a PBS buffer solution was calculated and plotted against the irradiation times. From the plot the slope of the linear regression was calculated as well as the absorbance correction factor determined. The singlet oxygen quantum yields were calculated using the same formulas as used for the direct evaluation.
Additionally, the DFT calculations were able to characterize the lowest energy absorption band as a MLCT transition with a triplet state. With this in hand, a quantitative evaluation of singlet oxygen (^1O2) was performed to assess the potential of the PSs in PDT, by two methods: 1) direct by measurement of the luminescence of ^1O2, 2) indirect by measurement of the variation in absorbance of a reporter molecule, as described above. In the first method, the efficiency of the production of ^1O2 was assessed by measuring its phosphorescence at 1270 nm. Worthy of note, the possibility of detection in this experiment is affected by its environment as well as the used setup. With the setup used in this study, we could only detect Φ(^1O2) larger than 0.20 based on a low peak-to-noise ratio. In the second method (indirect method), ^1O2 is reacting with imidazole (in CH3CN) and histidine (in PBS buffer) to a trans-annular peroxide adduct. This can further quench the absorbance of the reporter molecule p-nitrosodimethyl aniline (RNO), which has been monitored by UV/VIS spectroscopy. In both methods, the ^1O2 production has been compared with a reference molecule, namely a solution of phenalenone in CH3CN (Φ(^1O2)phenaleone=0.95)^33 and a solution of [Ru(bipy)3]Cl2 in water Φ(^1O2)Ru(bipy)3Cl2=0.22)^31. […] In comparison, the values changed drastically in an aqueous solution. […] They have untypically low Φ(^1O2) values in CH3CN (0.22-0.35) for Ru(II) polypyridyl complexes. Subsequently, the ^1O2 production was also quite low in an aqueous environment.

[3] = test system: human glioblastoma cells (U373); assay: Dark and light cytotoxicity, resazurin cell viability assay, U373; format: cell-based; settings: for PI (IC50 in the dark/IC50 upon light irradiation): U373, 480 nm
Procedure: HeLa and CT-26 cell lines were cultured in DMEM media (Gibco, Life Technologies, USA) supplemented with 10% of fetal calf serum (Gibco). U87 and U373 cell lines were cultured in MEM media with addition of 1% of MEM NEAA (non-essential aminoacids) (Gibco) and 10% of fetal calf serum. RPE-1 cells were cultured in DMEM/F-12 (Gibco) supplemented with 10% of fetal calf serum. RPE-1 stable cells lines were cultured as RPE-1 cells with addition of geneticin (0.5 mg/ml) (Gibco). All cell lines were complemented with 100 U/ml penicillin-streptomycin mixture (Gibco), and maintained in humidified atmosphere at 37° C. and 5% of CO2.
Dark and light cytotoxicity of the Ru(II) complexes was assessed by fluorometric cell viability assay using resazurin (ACROS Organics). For dark and light cytotoxicity, cells were seeded in triplicates in 96 well plates at a density of 4000 cells per well in 100 μl, 24 h prior to treatment. The medium was then replaced with increasing concentration of the tested complexes and cells were incubated for 4 h. Medium was then replaced for fresh complete medium. Cells used for light cytotoxicity experiment were exposed to: 480 nm light for 10 min, 510 nm for 40 min, 540 for 60 min or 595 nm for 120 min in a 96-well plate using a LUMOS-BIO photoreactor (Atlas Photonics). Each well was individually illuminated with a LED at constant current. After irradiation cells were kept for another 44 h in the incubator and the medium was replaced by fresh complete medium containing resazurin (0.2 mg ml^−1 final concentration). After 4 h incubation at 37° C., the fluorescence signal of the resorufin product was read by SpectraMax M5 microplate reader (ex: 540 nm em: 590 nm). IC50 values were calculated using GraphPad Prism software.
The potential of the complexes to act as PDT PSs was determined on mouse colon carcinoma cells (CT-26), human glioblastoma cells (U87 and U373), human cervical carcinoma cells (HeLa) as well as non-cancerous retina pigmented epithelial cell line (RPE-1) according to the method described above. […] Ideally, a PDT PS should be non-toxic in the dark and highly toxic upon light activation. […] The toxicity of the compounds upon light irradiation (480 nm, 10 min, 3.21 J cm^−2) was then investigated.

[4] = U373, dark, read-out: IC50 Dark
[5] = U373, light 480 nm, 10 min, 3.21 J cm^−2, read-out: IC50 Light

| Compound | Emission λem [1] | Singlet oxygen quantum yield Φ(1O2), CH3CN Indirect [2] | Singlet oxygen quantum yield Φ(1O2), PBS indirect [2] | IC50 [3, 4] | IC50 [3, 5] | PI (IC50 in the dark/IC50 upon light irradiation) ([3]; 10 min) |
| --- | --- | --- | --- | --- | --- | --- |
| F[P-](F)(F)(F)(F)F.F[P-](F)(F)(F)(F)F.[Ru+2].c1ccc(-c2ccccn2)nc1.c1cnc2c(c1)ccc1cccnc12.c1cnc2c(c1)ccc1cccnc12 [Compound 1, (Bipyridine)bis(1,10-phenanthroline)ruthenium(II)hexafluorophosphate] | 600 nm | 0.54 | 0.46 | > 100 µM | > 100 µM |  |
| ((E,E′)-4,4′-Bis(N,N′-dimethylaminovinyl)-2,2′-bipyridine)bis(1,10-phenanthroline)ruthenium(II) hexafluorophosphate [Compound 5] | 703 nm | 0.30 | 0.21 | > 100 µM | > 100 µM |  |
| (4,4′-Dibromo-2,2′-bipyridine)bis(1,10-phenanthroline)ruthenium(II) hexafluorophosphate [Compound 3] | 645 nm | 0.56 | 0.16 | > 100 µM | > 100 µM |  |
| ((E,E′)-4,4′-Bis(N,N′-dimethylaminovinyl)-2,2′-bipyridine)bis(4,7-diphenyl-1,10-phenanthroline)ruthenium(II) hexafluorophosphate [Compound 7] | 694 nm | 0.35 | 0.07 | > 100 µM | 14.8 ± 0.81 µM | >6.7 |
| (4,4′-Dimethyl-2,2′-bipyridine)bis(4,7-diphenyl-1,10-phenanthroline)ruthenium(II) hexafluorophosphate [Compound 6] | 623 nm | 0.63 | 0.03 | 23.4 ± 0.53 µM | 1.89 ± 0.07 µM | 12.37 |
| Cc1ccnc(-c2cc(C)ccn2)c1.F[P-](F)(F)(F)(F)F.F[P-](F)(F)(F)(F)F.[Ru].c1cnc2c(c1)ccc1cccnc12.c1cnc2c(c1)ccc1cccnc12 [Compound 2, (4,4′-Dimethyl-2,2′-bipyridine)bis(1,10-phenanthroline)ruthenium(II)hexafluorophosphate] | 606 nm | 0.53 | 0.34 | > 100 µM | > 100 µM |  |
| (2,2′-bipyridine-4,4′-carboxamide)bis(1,10-phenanthroline)ruthenium(II) hexafluorophosphate [Compound 4] | 654 nm | 0.59 | 0.26 | > 100 µM | > 100 µM |  |
